{"source": "patent US20240108645A1", "about": "“SENESCENCE AND SENESCENCE ASSOCIATED SECRETORY PHENOTYPE” (Metro Biotech NSW Pty Ltd, priority 2013, published 2024)", "key": {"[1]": {"test_system": "3T3-L1 adipocytes", "test": "Intracellular lipid content (oil red o) of 3T3-L1 adipocytes treated with antiretroviral agents", "settings": "stavudine 10 nM alone, 24 hr; vs vehicle", "procedure": "The ability of NAD^+ agonists to reduce or prevent lipodystrophy associated with anti-retroviral compounds was assessed. The ability of NMN to prevent or reduce lipodystrophy was tested by determining the lipid content of 3T3-L1 adipocytes treated with a vehicle, or the antiretroviral agent stavudine, either alone or in combination with NMN.\n3T3-L1 adipocytes were treated for 24 hr with the HIV antiretroviral compound stavudine (10 nM) in the presence or absence of NMN (1 mM). Intracellular lipid content was assessed using oil red o staining, which was quantified by reading absorbance at 544 nm. Error bars: SD.\nIn order to further test the ability of NAD^+ agonists to reduce lipodystrophy associated with antiretroviral agents, 3T3-L1 adipocytes were treated for 24 hr with various antiretroviral compounds (30 μM) in the presence or absence of NMN (1 mM) or apigenin (25 μM). Intracellular lipid content was assessed using oil red o staining, which was quantified by reading absorbance at 544 nm."}, "[2]": {"test_system": "p16^INK4a", "test": "Imiquimod-induced skin senescence in p16^LUC mice, bioluminescence imaging", "assay_type": "in vivo, SKH1 hairless p16^LUC mice", "settings": "IMQ cream (5% IMQ) alone, applied daily to rump for 4 days", "description": "In order to study the effects of NAD^+ agonists on cellular senescence associated with the skin, which is associated with inflammation, senescence was induced in a luciferase knockin (p16^LUC) mouse (Burd et al. (2013) Cell 152: 340-351) using topical application of Imiquimod. Imiquimod (IMQ) is an immune modulator topically applied for skin conditions such as melanoma and genital warts. The side effect of IMQ is severe, painful inflammation and aging of the skin.\nP16^LUC mice contain the firefly luciferase cDNA inserted into the translational start site of the endogenous p16^INK4a gene. Conditions which induce expression of the p16^INK4a gene, and therefore induce cellular senescence, also induce expression of firefly luciferase in p16^LUC mice (Burd et al. […] Cell 152:340-351; Sorrentino et al. (2014) The Journal of Clinical Investigation, 124(1): 169-351).\nThe following formulations were prepared: • 1. Cream carrier (containing no IMQ) (control or ctrl); • 2. IMQ cream (containing 5% IMQ) mixed with 10% water (IMQ); and • 3. IMQ cream (containing 5% IMQ) mixed with […] NMN (equating to 5% NMN) (IMQ+NMN).\nEach of 1, 2 and 3 were applied daily to the rump of SKH1 hairless p16^LUC mice for 4 days. The animals were subjected to bioluminescence imaging as a readout for senescence. Areas of fluorescence are indicated as darkened areas in FIG. 4."}, "[3]": {"test": "Blood glucose and free water (echoMRI) in dexamethasone treated rats", "assay_type": "in vivo, Sprague-Dawley rats", "settings": "dexamethasone sodium phosphate 0.8 mg/kg i.p., one day after injection", "procedure": "To study the effects of NAD^+ agonists on senescence associated with treatment with corticoids, 250 g Sprague-Dawley rats were administered daily intraperitoneal injections of the following formulations for 3 days: • 1. Vehicle: saline • 2. Dexamethasone: 0.8 mg/kg of animal dexamethasone sodium phosphate • 3. Dexamethasone+NMN: 0.8 mg/kg body weight dexamethasone sodium phosphate and 1.5 g/kg body weight NMN.\nAfter 3 days, blood glucose was determined.\nFree water was assessed by echMRI one day after injection of the above formulations."}}}
{"smiles": "Cc1cn([C@H]2C=C[C@@H](CO)O2)c(=O)[nH]c1=O", "note": "[stavudine, 2′,3′-didehydro-2′,3′-dideoxythymidine, reference compound]", "values": [{"measurement": "intracellular lipid content (oil red o, absorbance at 544 nm)", "setting": "[1]", "value": "reduction in lipid content"}]}
{"smiles": "CC(C)Cn1cnc2c(N)nc3ccccc3c21", "note": "[IMQ, Imiquimod, reference compound]", "values": [{"measurement": "p16^IN14a induction (bioluminescence)", "setting": "[2]", "value": "showed areas of p16^IN14a induction"}]}
{"smiles": "C[C@@H]1C[C@H]2[C@@H]3CCC4=CC(=O)C=C[C@]4(C)[C@@]3(F)[C@@H](O)C[C@]2(C)[C@@]1(O)C(=O)CO", "note": "[dexamethasone, reference compound]", "values": [{"measurement": "free water (echoMRI)", "setting": "[3]", "value": "significantly reduced the amount of free water"}]}
